Laboratory results taken from patent publication US8030354B2, “Substituted biphenyl GPR40 modulators” (Amgen Inc., priority 2007, dated 2011).

What follows are compounds tested against GPR40 (Homo sapiens, UniProt O14842) (assay: Cell-based aequorin assay (CHO cells stably expressing GPR40 and aequorin)). Details: activation of human GPR40, CHO cells, 0.01% HSA.
Set-up: expressed in transfected cells; host or cells: CHO cells stably transfected with GPR40 and aequorin
Protocol: Briefly, the Aequorin assays were performed on doubly stable CHO cells expressing GPR40 and Aequorin DNA. […] The luminescence was recorded over a period of 20 seconds with a Microlumat luminometer (Berthold). […] The inositol phosphate assay was performed on an A9 cell line stably transfected with GPR40 (A9_GPR40). The cells were incubated with different concentrations of compounds and [^3H] inositol accumulation was measured after 1 hour.
Cell-based aequorin assays were employed to characterize the modulatory activity of compounds on the GPR40 signaling pathway. In an exemplary assay, CHO cells were stably transfected with both GPR40 and Aequorin (Euroscreen). Cells were detached from the tissue culture dish with 2 mL of trypsin (0.25%(w/v)). Trypsinization was halted with 28 mL of Hanks Buffered Salt Solution containing 20 mM Hepes (H/HBSS) and 0.01% fatty acid-free human serum albumin (HSA). Coelantrazine is added to 1 ug/mL, and the cells were incubated for 2 hours at room temperature. Compounds were dissolved in DMSO for preparation of 10 mM stock solutions. Compounds were diluted in H/HBSS containing 0.01% HSA. Serial dilutions of the test compounds were prepared to determine dose response.
Aequorin luminescence measurements were made using an EG&G Berthold 96-well luminometer, and the response was measured over a 20 second interval after cells and compounds were mixed. The maximum relative light units was plotted to determine dose response. The EC50 (effective concentration to reach 50% maximal response) was determined from the dose response plot.

GPR40, sequence (O14842 whole entry): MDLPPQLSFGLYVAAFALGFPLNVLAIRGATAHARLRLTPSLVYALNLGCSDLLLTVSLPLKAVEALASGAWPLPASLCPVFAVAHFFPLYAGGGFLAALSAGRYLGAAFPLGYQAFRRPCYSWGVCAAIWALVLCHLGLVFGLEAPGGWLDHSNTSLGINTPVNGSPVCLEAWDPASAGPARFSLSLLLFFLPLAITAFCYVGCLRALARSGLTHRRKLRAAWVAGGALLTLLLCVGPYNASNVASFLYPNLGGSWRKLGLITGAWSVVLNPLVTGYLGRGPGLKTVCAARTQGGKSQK

Question: CCCCOc1cc(COc2cccc(C(CC(=O)O)C3CC3)c2)ccc1-c1cccc(OC)c1 (single isomer, unassigned) [Example 66.1, (3S)-3-(3-(((2-(Butyloxy)-3′-(methyloxy)-1,1′-biphenyl-4-yl)methyl)oxy)phenyl)-3-cyclopropylpropanoic acid or (3R)-3-(3-(((2-(butyloxy)-3′-(methyloxy)-1,1′-biphenyl-4-yl)methyl)oxy)phenyl)-3-cyclopropylpropanoic acid] was tested. Which EC50 did it give?
Answer: The EC50 was 0.1 to 1 µM.

Question: COc1ccc(F)c(-c2ccc(COc3cccc(C(CC(=O)O)C4CC4)c3)cc2C2CCCC2(C)C)c1 (single isomer, unassigned) [Example 66.5] was tested. Which EC50 did it give?
Answer: The EC50 was 0.1 to 1 µM.

Question: With COc1cccc(-c2ccc(COc3cccc(C(CC(=O)O)C4CC4)c3)cc2C2CCCC2(C)C)c1 (single isomer, unassigned) [Example 66.7] as the compound, how does the EC50 read?
Answer: The EC50 was 0.1 to 1 µM.

Question: With CC1(C)CCC=C1c1cc(COc2cccc([C@@H](CC(=O)O)C3CC3)c2)ccc1-c1cc(O)ccc1F (single isomer, unassigned) [Example 66.14, (3S)-3-Cyclopropyl-3-(3-(((2-(5,5-dimethyl-1-cyclopenten-1-yl)-2′-fluoro-5′-hydroxy-1,1′-biphenyl-4-yl)methyl)oxy)phenyl)propanoic acid or (3R)-3-cyclopropyl-3-(3-(((2-(5,5-dimethyl-1-cyclopenten-1-yl)-2′-fluoro-5′-hydroxy-1,1′-biphenyl-4-yl)methyl)oxy)phenyl)propanoic acid] as the compound, how does the EC50 read?
Answer: Its EC50 is 0.1 to 1 µM.

Question: COc1ccc(F)c(-c2ccc(COc3cccc([C@@H](CC(=O)O)C4CC4)c3)cc2C2CCCCCCC2)c1 (single isomer, unassigned) [Example 66.16, (3S)-3-(3-(((2-Cyclooctyl-2′-fluoro-5′-(methyloxy)-1,1′-biphenyl-4-yl)methyl)oxy)phenyl)-3-cyclopropylpropanoic acid or (3R)-3-(3-(((2-cyclooctyl-2′-fluoro-5′-(methyloxy)-1,1′-biphenyl-4-yl)methyl)oxy)phenyl)-3-cyclopropylpropanoic acid] was tested. Which EC50 did it give?
Answer: The EC50 was 0.1 to 1 µM.

Question: Which EC50 does the source give for COc1ccc(F)c(-c2ccc(COc3cccc([C@@H](CC(=O)O)C4CC4)c3)cc2[C@H](C)C(C)(C)C)c1 (single isomer, unassigned) [Example 66.18] here?
Answer: Its EC50 is 0.1 to 1 µM.

Question: How did the EC50 turn out when COc1ccc(F)c(-c2ccc(COc3cccc([C@@H](CC(=O)O)C4CC4)c3)cc2[C@@H]2CCCCC2(C)C)c1 (single isomer, unassigned) [Example 66.21] was run?
Answer: The EC50 was 0.1 to 1 µM.

Question: How did the EC50 turn out when CC1(C)CCC[C@@H]1c1cc(COc2cccc([C@@H](CC(=O)O)C3CC3)c2)ccc1-c1cc(OCC(F)(F)F)ccc1F (single isomer, unassigned) [Example 66.23] was run?
Answer: Its EC50 is 1 to 10 µM.

Question: With CC1(C)CCC[C@@H]1c1cc(COc2cccc([C@@H](CC(=O)O)C3CC3)c2)ccc1-c1cc(OC(F)(F)F)ccc1F (single isomer, unassigned) [Example 66.29] as the compound, how does the EC50 read?
Answer: The EC50 was 0.1 to 1 µM.

Question: With COc1ccc(F)c(-c2ccc(COc3cccc([C@@H](CC(=O)O)C4CC4)c3)cc2[C@H](F)C(C)(C)C)c1 (single isomer, unassigned) [Example 66.30] as the compound, how does the EC50 read?
Answer: The EC50 was 0.1 to 1 µM.

Question: How did the EC50 turn out when CO[C@@H](c1cc(COc2cccc([C@@H](CC(=O)O)C3CC3)c2)ccc1-c1ccccc1F)C(C)(C)C (single isomer, unassigned) [Example 66.32] was run?
Answer: Its EC50 is 0.1 to 1 µM.

Question: CC1(C)CCCC=C1c1cc(COc2cccc(C(CC(=O)O)C3CC3)c2)ccc1-c1cc(=O)[nH]cc1F (single isomer, unassigned) [Example 66.35, (3S)-3-Cyclopropyl-3-(3-(((3-(6,6-dimethyl-1-cyclohexen-1-yl)-4-(5-fluoro-2-oxo-1,2-dihydro-4-pyridinyl)phenyl)methyl)oxy)phenyl)propanoic acid or (3R)-3-cyclopropyl-3-(3-(((3-(6,6-dimethyl-1-cyclohexen-1-yl)-4-(5-fluoro-2-oxo-1,2-dihydro-4-pyridinyl)phenyl)methyl)oxy)phenyl)propanoic acid] was tested. Which EC50 did it give?
Answer: The EC50 was 1 to 10 µM.

Question: With COc1ccc(F)c(-c2ccc(COc3cccc([C@@H](CC(=O)O)C4CC4)c3)cc2C(C2CC2)N(C)C)c1 (single isomer, unassigned) [Example 66.38, (3S)-3-Cyclopropyl-3-(3-(((2-(cyclopropyl(dimethylamino)methyl)-2′-fluoro-5′-(methyloxy)-1,1′-biphenyl-4-yl)methyl)oxy)phenyl)propanoic acid or (3R)-3-cyclopropyl-3-(3-(((2-(cyclopropyl(dimethylamino)methyl)-2′-fluoro-5′-(methyloxy)-1,1′-biphenyl-4-yl)methyl)oxy)phenyl)propanoic acid] as the compound, how does the EC50 read?
Answer: The EC50 was 1 to 10 µM.

Question: With COc1ccc(F)c(-c2ccc(COc3cccc([C@@H](CC(=O)O)C4CC4)c3)cc2C(OC)C(C)(C)CO)c1 (single isomer, unassigned) [Example 66.41, (S)-3-Cyclopropyl-3-{3-[2′-fluoro-2-(3-hydroxy-1-methoxy-2,2-dimethyl-propyl)-5′-methoxy-biphenyl-4-ylmethoxy]-phenyl}-propionic acid or (R)-3-cyclopropyl-3-{3-[2′-fluoro-2-(3-hydroxy-1-methoxy-2,2-dimethyl-propyl)-5′-methoxy-biphenyl-4-ylmethoxy]-phenyl}-propionic acid] as the compound, how does the EC50 read?
Answer: Its EC50 is 0.1 to 1 µM.

Question: COc1ccc(F)c(-c2cc(F)c(COc3cccc([C@@H](CC(=O)O)C4CC4)c3)cc2[C@@H]2CCCC2(C)C)c1 (single isomer, unassigned) [Example 66.45] was tested. Which EC50 did it give?
Answer: Its EC50 is 0.1 to 1 µM.

Question: For COc1ccc(F)c(-c2ccc(COc3cccc([C@@H](CC(=O)O)C4CC4)c3)cc2C2=CCOCC2)c1 (single isomer, unassigned) [Example 66.46, (3S)-3-Cyclopropyl-3-(3-(((2-(3,6-dihydro-2H-pyran-4-yl)-2′-fluoro-5′-(methyloxy)-1,1′-biphenyl-4-yl)methyl)oxy)phenyl)propanoic acid or (3R)-3-cyclopropyl-3-(3-(((2-(3,6-dihydro-2H-pyran-4-yl)-2′-fluoro-5′-(methyloxy)-1,1′-biphenyl-4-yl)methyl)oxy)phenyl)propanoic acid], which EC50 is on record?
Answer: Its EC50 is 1 to 10 µM.

Question: For CC1(C)CCC[C@H]1c1cc(COc2cccc([C@@H](CC(=O)O)C3CC3)c2)ccc1-c1cccc(OC(F)F)c1 (single isomer, unassigned) [Example 66.47], which EC50 is on record?
Answer: Its EC50 is 0.1 to 1 µM.

Question: How did the EC50 turn out when CC1(C)CCC[C@@H]1c1cc(COc2cccc([C@@H](CC(=O)O)C3CC3)c2)ccc1-c1cccc(OC2CC2)c1 (single isomer, unassigned) [Example 66.48] was run?
Answer: The EC50 was 0.1 to 1 µM.

Question: CC1(C)CCC[C@H]1c1cc(COc2cccc([C@@H](CC(=O)O)C3CC3)c2)ccc1-c1cc(C(F)F)ccc1F (single isomer, unassigned) [Example 66.52] was tested. Which EC50 did it give?
Answer: The EC50 was 1 to 10 µM.

Question: With CC1(C)CCC=C1c1cc(COc2cccc([C@@H](CC(=O)O)C3CC3)c2)ccc1-c1cc(C(F)(F)F)ccc1F (single isomer, unassigned) [Example 66.53, (3S)-3-Cyclopropyl-3-(3-(((2-(5,5-dimethyl-1-cyclopenten-1-yl)-2′-fluoro-5′-(trifluoromethyl)-1,1′-biphenyl-4-yl)methyl)oxy)phenyl)propanoic acid or (3R)-3-cyclopropyl-3-(3-(((2-(5,5-dimethyl-1-cyclopenten-1-yl)-2′-fluoro-5′-(trifluoromethyl)-1,1′-biphenyl-4-yl)methyl)oxy)phenyl)propanoic acid] as the compound, how does the EC50 read?
Answer: Its EC50 is 1 to 10 µM.

Question: With COc1ccc(F)c(-c2ccc(COc3cccc([C@@H](CC(=O)O)C4CC4)c3)cc2[C@H]2OCCCC2(C)C)c1 (single isomer, unassigned) [Example 66.55] as the compound, how does the EC50 read?
Answer: Its EC50 is 1 to 10 µM.

Question: How did the EC50 turn out when C=CC(C)(C)[C@@H](O)c1cc(COc2cccc([C@@H](CC(=O)O)C3CC3)c2)ccc1-c1cc(OC)ccc1F (single isomer, unassigned) [Example 66.60] was run?
Answer: The EC50 was 1 to 10 µM.

Question: How did the EC50 turn out when C=CC(C)(C)C(O)c1cc(COc2cccc(C(CC(=O)O)C3CC3)c2)ccc1-c1cc(OC)ccc1F (single isomer, unassigned) [Example 66.61] was run?
Answer: The EC50 was 0.1 to 1 µM.

Question: With COc1ccc(F)c(-c2ccc(COc3cccc([C@@H](CC(=O)O)C4CC4)c3)cc2CN2CCCCC2)c1 (single isomer, unassigned) [Example 66.64, (3S)-3-Cyclopropyl-3-(3-(((2′-fluoro-5′-(methyloxy)-2-(1-piperidinylmethyl)-1,1′-biphenyl-4-yl)methyl)oxy)phenyl)propanoic acid or (3R)-3-cyclopropyl-3-(3-(((2′-fluoro-5′-(methyloxy)-2-(1-piperidinylmethyl)-1,1′-biphenyl-4-yl)methyl)oxy)phenyl)propanoic acid] as the compound, how does the EC50 read?
Answer: The EC50 was 1 to 10 µM.

Question: COc1ccc(F)c(-c2ccc(COc3cccc([C@@H](CC(=O)O)C4CC4)c3)cc2CN2CCCC2)c1 (single isomer, unassigned) [Example 66.65, (3S)-3-Cyclopropyl-3-(3-(((2′-fluoro-5′-(methyloxy)-2-(1-pyrrolidinylmethyl)-1,1′-biphenyl-4-yl)methyl)oxy)phenyl)propanoic acid or (3R)-3-cyclopropyl-3-(3-(((2′-fluoro-5′-(methyloxy)-2-(1-pyrrolidinylmethyl)-1,1′-biphenyl-4-yl)methyl)oxy)phenyl)propanoic acid] was tested. Which EC50 did it give?
Answer: The EC50 was 1 to 10 µM.
